Test results as given in ChEMBL document CHEMBL4261614, “Discovery of traditional Chinese medicine monomers and their synthetic intermediates, analogs or derivatives for battling P-gp-mediated multi-drug resistance” (Eur J Med Chem, 2018).

Key:
[1] = species: Homo sapiens; assay: Inhibition of P-gp in human KBv200 cells assessed as potentiation of vincristine-induced cytotoxicity by measuring reduction in vincristine IC50 at 25 uM after 96 hrs by […] relative to vincristine alone; type: cell-based
[2] = target: ATP-dependent translocase ABCB1 (Homo sapiens, UniProt P08183); assay: Inhibition of MDR1 (unknown origin) expressed in MDCK-MDR1 cells assessed as increase in Rh123 accumulation at 100 uM after 30 mins by spectrofluorometric analysis relative to control; type: cell-based; details: mdck-mdr1, 0.5 h
Sequence of ATP-dependent translocase ABCB1 (P08183 whole entry): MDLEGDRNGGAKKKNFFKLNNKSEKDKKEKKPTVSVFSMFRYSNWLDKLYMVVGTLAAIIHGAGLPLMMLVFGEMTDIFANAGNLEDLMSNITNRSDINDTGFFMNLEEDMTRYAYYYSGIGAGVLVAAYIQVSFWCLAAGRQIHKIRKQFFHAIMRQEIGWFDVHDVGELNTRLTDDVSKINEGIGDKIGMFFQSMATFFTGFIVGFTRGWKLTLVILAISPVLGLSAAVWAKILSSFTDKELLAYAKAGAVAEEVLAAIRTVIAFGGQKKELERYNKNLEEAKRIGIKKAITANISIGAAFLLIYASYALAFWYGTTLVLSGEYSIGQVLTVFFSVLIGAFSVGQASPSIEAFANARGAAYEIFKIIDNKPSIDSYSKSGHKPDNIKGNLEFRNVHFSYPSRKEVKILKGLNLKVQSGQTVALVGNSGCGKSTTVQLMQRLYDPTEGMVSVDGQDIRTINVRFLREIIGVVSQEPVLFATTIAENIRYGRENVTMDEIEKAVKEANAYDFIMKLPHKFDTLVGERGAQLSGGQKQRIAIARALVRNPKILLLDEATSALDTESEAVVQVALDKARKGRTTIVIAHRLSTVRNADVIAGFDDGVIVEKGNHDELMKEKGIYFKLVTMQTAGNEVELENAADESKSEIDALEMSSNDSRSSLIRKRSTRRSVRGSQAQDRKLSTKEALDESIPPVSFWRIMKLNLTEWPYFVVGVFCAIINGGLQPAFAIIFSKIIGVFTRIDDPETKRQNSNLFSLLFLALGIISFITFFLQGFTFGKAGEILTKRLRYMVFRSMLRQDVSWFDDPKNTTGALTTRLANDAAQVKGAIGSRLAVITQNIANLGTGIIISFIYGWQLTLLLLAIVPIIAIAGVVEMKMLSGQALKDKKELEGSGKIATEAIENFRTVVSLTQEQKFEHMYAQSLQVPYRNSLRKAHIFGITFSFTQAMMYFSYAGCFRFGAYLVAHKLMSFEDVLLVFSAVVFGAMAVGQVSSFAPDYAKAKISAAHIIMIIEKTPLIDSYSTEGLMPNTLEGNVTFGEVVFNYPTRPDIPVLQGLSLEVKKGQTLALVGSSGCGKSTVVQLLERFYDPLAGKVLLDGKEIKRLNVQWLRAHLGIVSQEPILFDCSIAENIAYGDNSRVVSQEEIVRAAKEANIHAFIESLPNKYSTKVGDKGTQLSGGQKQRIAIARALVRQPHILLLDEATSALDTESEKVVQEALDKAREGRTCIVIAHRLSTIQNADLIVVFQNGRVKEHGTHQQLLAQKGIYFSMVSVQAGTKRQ

fold change (FC) [2]	Structure (SMILES)	Ratio IC50 [1]
	COc1cc2c(c(OC)c1OC)-c1c(cc3c(c1OC)OCO3)CC(C)C(C)C2 (centres undefined)	23.5
	COc1cc2c(c(OC)c1OC)-c1c(cc(OC)c(OC)c1OC)C[C@H](C)[C@H](C)C2	309
	COc1cc2c(c(OC)c1OC)-c1c(cc(OC)c(OC)c1OC)C[C@](C)(O)[C@@H](C)C2	3.8
9	CC(C)C(=O)OC(C)(C)[C@@H]1Cc2c(ccc3ccc(=O)oc23)O1	
